For data set [1], the system named is trypsin, chymotrypsin and elastase. Briefly: Metabolic stability in pancreatic enzyme mix (ESMS, SIM of molecular ion). The data set is classed as in vitro ADME. To be noted: 0.025 mg/ml, 100 mM ammoniumbicarbonate pH 8.0, 37° C., 24 h in degradation solution, enzyme:substrate approx. 1:5. As for the experimental part:
(§1) The solution is left at 37° C. overnight.
(§2) Identification of degradation products furthermore involved the use of plasma desorption mass spectrometry (PDMS) with sample application on nitrocellulose coated targets and standard instrumental settings. The accuracy of the hereby determined masses is generally better than 0.1%.
(§3) Separation and isolation of degradation products was done using a HY-TACH C-18 reverse phase 4.6×105 mm HPLC column (Hewlett-Packard Company, Palo Alto, Calif.) with a standard acetonitril: TFA separation gradient. The HPLC system used was HP1090M (Hewlett-Packard Company, Palo Alto, Calif.).

Another data set relates to carboxypeptidase Y and B. Briefly: Metabolic stability in carboxypeptidase mix (ESMS, SIM of molecular ion). The data set is classed as in vitro ADME. The conditions noted are these: 0.025 mg/ml, 50 mM ammoniumacetate pH 4.5, 37° C., 24 h in degradation solution, enzyme:substrate approx. 1:5. As for the experimental part:
as §1, §2, §3

With Glucagon, in data set [1], the “Pan. enzyme mix (stability)” value is reported as “− (Unstable (more than 20% decrease in SIM signal after 24 h in degradation solution))”. In addition, the “Carboxy-peptidase mix (stability)” value with carboxypeptidase Y and B is listed as “− (Unstable (more than 20% decrease in SIM signal after 24 h in degradation solution))”.

The record behind these values is US7576062B2, “Compounds with growth hormone releasing properties” (Novo Nordisk A/S, priority 1998, dated 2009).
